Measured values taken from a melting point compilation (Tetko et al.; mined from patent text by program, amines drawn as free bases though some values may be those of a salt).

Compared with `O=S(=O)(Cc1cn(C23CC4CC(CC(C4)C2)C3)nn1)c1cc(Cl)ccc1Cl`, `O=C1CCC(CCCOC2CCOCC2)(c2ccc(Cl)c(Cl)c2)CN1` (stereo unspecified) is lower in melting point: 198 to 199 °C for the first, 45 °C for the second.

First: Cc1cc(C)n(C(=O)CCNS(=O)(=O)c2ccccc2)n1
Second: COC(=O)c1cc(C(=O)OC)c(NCCCc2ccccc2)cn1
The melting point of the first is higher: 113 to 115 °C for the first, 102 to 104 °C for the second.

First: CCOC(=O)C(C#N)(Cc1ccc(OC)c(OC)c1)C(OCC)OCC (stereo unspecified)
Second: CCC(C)(CC)c1cc(NC(=O)c2c(OC)cccc2OC)sn1
The melting point of the first is lower: 62 to 65 °C for the first, 243 to 244 °C for the second.

Going from `CC1(C)CC(NC=O)CC(C)(C)N1` to `CC(C)(C)OC(=O)NN1CCN([Si](C)(C)C)C1=O`, the melting point falls from 153 °C to 132 °C.

First: CC(CC(=O)c1ccccc1)C(=O)N1CSCC1C(=O)O (stereo unspecified)
Second: CCOC(=O)c1[nH]c(=O)n(C)c(=O)c1OCc1ccccc1
The melting point of the first is lower: 182 to 183 °C for the first, 184 to 187 °C for the second.

First: FC(F)(F)c1cccc(-c2cc(C(F)(F)F)n3cnc(-c4ccncc4)c3n2)c1
Second: O=Cc1ccc(-c2ccnc(-c3ccc(OC(F)(F)F)cc3)n2)cc1
The melting point of the first is higher: 258 °C for the first, 70 to 73 °C for the second.

Compared with `NS(=O)(=O)OCCOS(N)(=O)=O`, `CS(=O)(=O)c1ccccc1OCCF` is lower in melting point: 98.5 to 101 °C for the first, 67 to 69 °C for the second.

First: CCOC(=O)C(=O)Nc1ccc(C#N)c2ccccc12
Second: CCNc1cccc(NC(=O)COC(C)=O)c1C#N
The melting point of the first is higher: 164 °C for the first, 110 to 113 °C for the second.

First: CS(=O)(=O)c1cc2c(cc1O)CCNCC2
Second: CS(=O)(=O)c1ccc(-c2cc(C(=O)CCCO)nn2C2CCCCC2)cc1
The melting point of the first is higher: 241 to 242 °C for the first, 112 to 114 °C for the second.

Compared with `COC(=O)c1cccnc1N(C)C1CCN(Cc2ccccc2)CC1`, `O=C1C(c2cccn2Cc2ccccc2)=CC(=O)c2ncccc21` is higher in melting point: 109 to 110 °C for the first, 172 to 173 °C for the second.

First: O=C(c1cc(-c2ccccc2)c(=O)n2c1-c1ccccc1C2)N1CCOCC1
Second: COc1cc(-c2cc(-c3ccccc3)c(N3CCOCC3)s2)nc(OC)c1OC
The melting point of the first is higher: 262 to 266 °C for the first, 124 °C for the second.

First: NCC1Cc2cc(-c3ccc(C(F)(F)F)cc3)cc(F)c2O1 (stereo unspecified)
Second: O=C(NOc1ncc(C(F)(F)F)cc1Cl)c1cccc2ccccc12
The melting point of the first is higher: over 250 °C for the first, 198 to 199 °C for the second.

Compared with `COc1c(C2CCN(CCCCNC(=O)c3ccc(-c4ccc(C#N)s4)nc3)CC2)ccc2c1CCCC2`, `COc1cc(C(C)=O)ccc1OCCCN1C2CCC1CC(c1n[nH]c3cc(F)ccc13)C2` (stereo unspecified) is lower in melting point: 186 to 188 °C for the first, 157 to 158 °C for the second.

First: O=c1c(-c2cccc(C(F)(F)F)c2F)nn(Cc2ccc(F)cc2F)c2cc(Cl)ccc12
Second: O=c1c2ccc(Cl)cc2[nH]c2c(O)nn(CC#Cc3ccc(Cl)cc3)c(=O)c12
The melting point of the first is lower: 118 to 120 °C for the first, 251 to 252 °C for the second.

Compared with `CCC(C)Nc1nc2ccccc2c(=O)o1` (stereo unspecified), `O=c1c2ccccc2cc(Br)c2ccncc12` is higher in melting point: 122 to 123 °C for the first, 167 to 169 °C for the second.

First: Nc1cc(C(=O)O)cc(S(N)(=O)=O)c1Nc1cccc(C(F)(F)F)c1
Second: COC(=O)c1ccc(OCCNC(=O)C2Cc3ccccc3N2S(=O)(=O)c2ccc(-c3cccc(C(F)(F)F)c3)cc2)c(C)c1 (stereo unspecified)
The melting point of the first is higher: 273 to 274 °C for the first, 68 to 74 °C for the second.

First: CC1(C)C=CC(=Cc2ccc(F)cc2)C1(O)Cn1ccnc1 (stereo unspecified)
Second: CC(C)c1nc(-c2ccccc2)n(-c2ccc(F)cc2)c1CO
The melting point of the first is lower: 172 °C for the first, 186 to 188 °C for the second.

First: Nc1ccnc(N)c1I
Second: COC(=O)c1ncc(N)nc1N
The melting point of the first is lower: 140 °C for the first, 252 to 254 °C for the second.

First: CCc1cc(C(=O)c2ccccc2Cl)c(-n2cnnc2CNS(=O)(=O)c2ccc3ccccc3c2)s1
Second: COC(=O)c1cccc([N+](=O)[O-])c1NCc1ccc(-c2ccccc2-c2nnnn2Cc2ccccc2)cc1
The melting point of the first is higher: 165 to 167 °C for the first, 115 to 117 °C for the second.

First: NNC(=O)Nc1nccs1
Second: COc1ccccc1-c1ncsc1C(=O)O
The melting point of the first is lower: 166 to 167 °C for the first, 170 to 172 °C for the second.

First: CNc1nc(SC)ncc1Cl
Second: CNc1ncnc(NCc2c(F)cccc2Cl)c1N
The melting point of the first is higher: 241 °C for the first, 210 to 213 °C for the second.

First: CC(C=O)Oc1ccc(OCc2ccccc2)cc1 (stereo unspecified)
Second: COc1cnn(-c2cccc(COc3ccccc3)c2)c(=O)c1OC
The melting point of the first is lower: 50 to 51 °C for the first, 82 to 85 °C for the second.

First: Cc1csc(-c2cc(=O)n(C)c3ccc(C(=O)c4ccc(Cl)cc4)cc23)n1
Second: CC(=O)c1ccc2c(c1)ncn2-c1cccc(-c2cncnc2)c1
The melting point of the first is lower: 236 °C for the first, 253 to 254 °C for the second.

Compared with `CC1CCNc2nc3ccc([N+](=O)[O-])cc3n21` (stereo unspecified), `CC(C)(OCc1n[nH]c2ccc([N+](=O)[O-])cc12)C(=O)O` is higher in melting point: 172 to 178 °C for the first, 210 °C for the second.

Compared with `CC(=O)N(C)CCc1ccc(C=CC(=O)O)cc1`, `NCCc1ccc(CCC(=O)O)cc1` is higher in melting point: 157 to 158 °C for the first, 270 to 272 °C for the second.

First: CCOC(=O)NNC(=S)NC
Second: CCOC(=O)c1cc(C)c2nc(CC)[nH]c2n1
The melting point of the first is lower: 117 °C for the first, 151 to 153 °C for the second.

First: Cc1nc2c(C=O)cccn2c1C
Second: COc1cc(OC)nc(Oc2c(Cl)cc(Cl)cc2C=O)n1
The melting point of the first is higher: 145 to 148 °C for the first, 132 to 133 °C for the second.

Compared with `COC(=O)COc1ccc(C(C)=O)c(O)c1`, `COC(=O)COc1ccc(C(C)=O)cc1C` is lower in melting point: 101 to 103 °C for the first, 51 to 53 °C for the second.

First: CC(=O)c1c(C)c2cnc(N)nc2n(C2CCCC2)c1=O
Second: Cn1c(=O)n(O)c(=O)c2cc(F)c(N3CCCC3)cc21
The melting point of the first is lower: 182 to 186 °C for the first, over 250 °C for the second.

First: Cc1ccc(-n2nc(C#N)cc2-c2ccc(S(C)(=O)=O)cc2)cc1Br
Second: COc1cc(Cl)cc2c1OC(C)(COS(=O)(=O)c1ccc(C)cc1)C2 (stereo unspecified)
The melting point of the first is higher: 179 to 180 °C for the first, 113 to 115 °C for the second.

First: O=[N+]([O-])c1cccc(Oc2cc(Oc3cccc([N+](=O)[O-])c3)cc(C(F)(F)F)c2)c1
Second: CN(CCCl)C(=O)Nc1ccc([N+](=O)[O-])cc1C(F)(F)F
The melting point of the first is higher: 118 °C for the first, 86 to 87 °C for the second.

Compared with `O=C(O)[C@@H]1CN[C@H](C(=O)O)C1`, `O=C1CCC(C(=O)c2ccc(C3CCCCC3)cc2)N1` (stereo unspecified) is lower in melting point: 219 to 220 °C for the first, 200 °C for the second.

Compared with `CCCCCCCCCCNC(=O)C=C(c1ccccc1)c1ccc([N+](=O)[O-])cc1`, `O=C(O)C=Cc1ccccc1NC(=O)c1ccc(OCCCCc2ccccc2)cc1` is higher in melting point: 91 to 93 °C for the first, 129 to 131 °C for the second.

First: CCCN(CCC)C(=O)C(C)Oc1nc(-c2ccccc2)nc2c1CCCC2 (stereo unspecified)
Second: CCCN(c1ccccc1)c1nc(C)nc(Cl)c1[N+](=O)[O-]
The melting point of the first is lower: 73 to 74 °C for the first, 99.8 to 100 °C for the second.

First: CN1CC(Cn2cnnn2)CC2c3cccc4[nH]cc(c34)CC21 (stereo unspecified)
Second: O=C1Cn2cncc2CN1Cc1ccc(F)cc1
The melting point of the first is higher: 206 to 209 °C for the first, 112 to 114 °C for the second.

First: CN(C)C(=O)C=C(c1ccc(-c2ccccc2)cc1)c1ccc(-c2ccccc2)cc1
Second: OCc1cnoc1-c1ccc(-c2ccccc2)cc1
The melting point of the first is higher: 121 °C for the first, 108 to 110 °C for the second.

First: CCc1ccc2c(c1)OC1(O)c3cccc(N)c3C(=O)C21O (stereo unspecified)
Second: Cc1ccccc1Oc1cccc2c1OC(=O)CC2
The melting point of the first is higher: 200 to 203 °C for the first, 80 to 82 °C for the second.

First: CCNC(=O)Nc1nc2nc(NCCCN3CCN(C)CC3)ncc2cc1-c1c(Cl)cccc1Cl
Second: O=C(O)c1ccccc1N1CCN(CC(O)COc2cccc3ccccc23)CC1 (stereo unspecified)
The melting point of the first is lower: 82 to 90 °C for the first, 215 to 218 °C for the second.

First: O=C(O)CCCCn1ccnc1
Second: CCOC(=O)CCCC(CNC(=O)OC(C)(C)C)c1ccccc1 (stereo unspecified)
The melting point of the first is higher: 157 to 158 °C for the first, 82 to 84 °C for the second.

First: Cc1ccccc1-c1nc2c3ccccc3ccn2c1N=Cc1ccc2ccccc2c1Br
Second: CCN(CC)c1ccc(/C=C/c2cc(/C=C/c3ccc4cc[nH]c4c3)[nH]n2)c(OCc2ccccc2)c1
The melting point of the first is higher: 250 to 252 °C for the first, 78.1 to 80 °C for the second.

First: O=C(O)CN1C(=O)C(=Cc2ccc(-c3ccccc3)cc2)SC1=S
Second: O=C(O)c1sc2ccc(Br)cc2c1-c1ccccc1
The melting point of the first is lower: 258 to 262 °C for the first, 265 to 266 °C for the second.

First: O=S1(=O)C=C(N2CCCCC2)c2ccccc2O1
Second: COc1ccc2c(c1)C(=C1CCN(C)CC1)c1ccccc1C=C2
The melting point of the first is higher: 187 to 189 °C for the first, 112 to 114 °C for the second.

First: CN(C)c1ccc(C(=O)CC(=O)C(C)(C)C)cc1
Second: N=C(N)c1ccc(O)cc1
The melting point of the first is lower: 61.5 to 61.8 °C for the first, 160 °C for the second.

Compared with `c1ccc(-c2cn(-c3ncc(C4CCCCC4)c4ccccc34)cn2)cc1`, `CC1CCC(Nc2nccc(Oc3ccc(NC(=O)c4cc(F)cc(N5CCCCC5)c4)c4ccccc34)n2)CC1` (stereo unspecified) is lower in melting point: 169 to 170 °C for the first, 101 to 102 °C for the second.

First: Cc1cc(NC(=O)C(=O)N2C(C)COCC2C)cc(C)c1S(=O)(=O)C[N+](=O)[O-] (stereo unspecified)
Second: C[C@@H](CN1CCc2ccc3c(c21)OCCO3)NC(=O)OC(C)(C)C
The melting point of the first is higher: 140 to 141 °C for the first, 130 to 132 °C for the second.

First: CCCn1c(=O)c2c(NC)n[nH]c2n(Cc2ccc(F)cc2)c1=O
Second: CC(SC1COC(c2ccc(C(=O)Nc3ccc(F)cc3)cc2)OC1)C(O)(Cn1cncn1)c1ccc(F)cc1F (stereo unspecified)
The melting point of the first is higher: 262 to 265 °C for the first, 104 °C for the second.

First: CNC(=O)c1cc2[nH]cnc2c(Cl)c1NC(=O)c1cc(C(F)(F)F)nn1-c1ncccc1Cl
Second: CC(=O)N1N=C(c2ccncc2)OC1c1c(Cl)cccc1Cl (stereo unspecified)
The melting point of the first is higher: 190 to 192 °C for the first, 163 °C for the second.

First: CCOC(=O)c1nc2ccc(OC)cc2nc1SCC
Second: CCN(CC)C(=O)c1cc(C(C)(C)C)ccc1-c1ccc(OC)cc1
The melting point of the first is lower: 70 °C for the first, 89 to 92 °C for the second.

Compared with `CON(C(=O)c1cn(C)nc1C(F)F)C(C)c1cccc(I)c1` (stereo unspecified), `COCn1cnc(-c2ccc(OC)cc2)c1-c1ccc(OC)cc1` is lower in melting point: 136 to 138 °C for the first, 99 to 101 °C for the second.

First: CCCCCCc1ccc(-c2ccc(C3CCC(C#N)(CCCCCC)CC3)cc2)cc1 (stereo unspecified)
Second: CC1(C)C=Cc2ccc(F)c(C#N)c2O1
The melting point of the first is lower: 66 °C for the first, 99 to 101 °C for the second.

First: O=c1c2ccc(O)cc2oc2c(O)c(O)ccc12
Second: O=c1c2c(O)cccc2[nH]c2c([N+](=O)[O-])ccc(Cl)c12
The melting point of the first is higher: over 300 °C for the first, 265 to 267 °C for the second.

First: C1CN(c2nc(NC3CC3)nc(C3CC3)n2)CCS1
Second: O=C(O)c1ccc2c(=O)n3nc(C(=O)O)ccc3nc2c1
The melting point of the first is lower: 133 to 134 °C for the first, over 360 °C for the second.

Compared with `COc1cc(C=C[N+](=O)[O-])c2c(c1OC)CCC2`, `O=C(Nc1ccc(OC(F)(F)F)c(Br)c1)C(F)(F)F` is lower in melting point: 128 to 130 °C for the first, 64 to 66 °C for the second.
